Assay results published in the kinase profiling compilation of Christmann-Franck et al. (2016).

How the values were obtained:
Assay in all cases: KINOMEscan competition binding
Settings in all cases: compound 10.0 µM
TESK1 (human) = TESK1 (human) (UniProt Q15569)
CHEK2 (human) = CHEK2 (human) (UniProt O96017)
BMPR2 (human) = BMPR2 (human) (UniProt Q13873)
MYLK2 (human) = MYLK2 (human) (UniProt Q9H1R3)
STK32C (human) = STK32C (human) (UniProt Q86UX6)
NTRK2 (human) = NTRK2 (human) (UniProt Q16620)
[1] = system: ABL1 (human), P00519 [M351T]
PRKG2 (human) = PRKG2 (human) (UniProt Q13237)
STK25 (human) = STK25 (human) (UniProt O00506)
FGR (human) = FGR (human) (UniProt P09769)
PIK3CD (human) = PIK3CD (human) (UniProt O00329)
CDC2L2 (human) = CDC2L2 (human) (UniProt Q9UQ88)
MAPK11 (human) = MAPK11 (human) (UniProt Q15759)
INSRR (human) = INSRR (human) (UniProt P14616)
EPHB3 (human) = EPHB3 (human) (UniProt P54753)
MLTK (human) = MLTK (human) (UniProt Q9NYL2)
PDPK1 (human) = PDPK1 (human) (UniProt O15530)
PTK6 (human) = PTK6 (human) (UniProt Q13882)
DCLK1 (human) = DCLK1 (human) (UniProt O15075)
BLK (human) = BLK (human) (UniProt P51451)
MST1R (human) = MST1R (human) (UniProt Q04912)
MAP3K9 (human) = MAP3K9 (human) (UniProt P80192)
FLT4 (human) = FLT4 (human) (UniProt P35916)
PTK2 (human) = PTK2 (human) (UniProt Q05397)
PRKD2 (human) = PRKD2 (human) (UniProt Q9BZL6)
EPHA2 (human) = EPHA2 (human) (UniProt P29317)
STK35 (human) = STK35 (human) (UniProt Q8TDR2)
STK3 (human) = STK3 (human) (UniProt Q13188)
ACVR1B (human) = ACVR1B (human) (UniProt P36896)
[2] = system: RET (human), P07949 [V804M]
FYN (human) = FYN (human) (UniProt P06241)
HCK (human) = HCK (human) (UniProt P08631)
EPHA8 (human) = EPHA8 (human) (UniProt P29322)
AKT1 (human) = AKT1 (human) (UniProt P31749)
PLK3 (human) = PLK3 (human) (UniProt Q9H4B4)
BRSK1 (human) = BRSK1 (human) (UniProt Q8TDC3)
MAPK14 (human) = MAPK14 (human) (UniProt Q16539)
RPS6KA4 KD1 (human) = RPS6KA4 KD1 (human) (UniProt O75676)
PAK6 (human) = PAK6 (human) (UniProt Q9NQU5)
ROS1 (human) = ROS1 (human) (UniProt P08922)
STK38L (human) = STK38L (human) (UniProt Q9Y2H1)
IRAK3 (human) = IRAK3 (human) (UniProt Q9Y616)
SRMS (human) = SRMS (human) (UniProt Q9H3Y6)

Sequence of STK32C (human) (Q86UX6 whole entry, looked up): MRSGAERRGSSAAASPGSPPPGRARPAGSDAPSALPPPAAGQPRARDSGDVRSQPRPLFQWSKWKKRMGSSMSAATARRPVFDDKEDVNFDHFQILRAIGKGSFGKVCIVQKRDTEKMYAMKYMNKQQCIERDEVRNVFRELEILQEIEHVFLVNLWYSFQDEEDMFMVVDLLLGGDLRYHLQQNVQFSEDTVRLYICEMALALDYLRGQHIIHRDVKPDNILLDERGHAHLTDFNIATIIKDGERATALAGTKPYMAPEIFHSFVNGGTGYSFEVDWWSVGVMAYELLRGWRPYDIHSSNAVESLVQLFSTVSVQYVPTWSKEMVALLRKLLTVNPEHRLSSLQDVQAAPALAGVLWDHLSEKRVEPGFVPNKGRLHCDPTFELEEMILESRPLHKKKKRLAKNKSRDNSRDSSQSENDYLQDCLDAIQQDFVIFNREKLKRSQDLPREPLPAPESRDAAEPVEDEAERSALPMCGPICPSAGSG
Sequence of EPHA8 (human) (P29322 whole entry, looked up): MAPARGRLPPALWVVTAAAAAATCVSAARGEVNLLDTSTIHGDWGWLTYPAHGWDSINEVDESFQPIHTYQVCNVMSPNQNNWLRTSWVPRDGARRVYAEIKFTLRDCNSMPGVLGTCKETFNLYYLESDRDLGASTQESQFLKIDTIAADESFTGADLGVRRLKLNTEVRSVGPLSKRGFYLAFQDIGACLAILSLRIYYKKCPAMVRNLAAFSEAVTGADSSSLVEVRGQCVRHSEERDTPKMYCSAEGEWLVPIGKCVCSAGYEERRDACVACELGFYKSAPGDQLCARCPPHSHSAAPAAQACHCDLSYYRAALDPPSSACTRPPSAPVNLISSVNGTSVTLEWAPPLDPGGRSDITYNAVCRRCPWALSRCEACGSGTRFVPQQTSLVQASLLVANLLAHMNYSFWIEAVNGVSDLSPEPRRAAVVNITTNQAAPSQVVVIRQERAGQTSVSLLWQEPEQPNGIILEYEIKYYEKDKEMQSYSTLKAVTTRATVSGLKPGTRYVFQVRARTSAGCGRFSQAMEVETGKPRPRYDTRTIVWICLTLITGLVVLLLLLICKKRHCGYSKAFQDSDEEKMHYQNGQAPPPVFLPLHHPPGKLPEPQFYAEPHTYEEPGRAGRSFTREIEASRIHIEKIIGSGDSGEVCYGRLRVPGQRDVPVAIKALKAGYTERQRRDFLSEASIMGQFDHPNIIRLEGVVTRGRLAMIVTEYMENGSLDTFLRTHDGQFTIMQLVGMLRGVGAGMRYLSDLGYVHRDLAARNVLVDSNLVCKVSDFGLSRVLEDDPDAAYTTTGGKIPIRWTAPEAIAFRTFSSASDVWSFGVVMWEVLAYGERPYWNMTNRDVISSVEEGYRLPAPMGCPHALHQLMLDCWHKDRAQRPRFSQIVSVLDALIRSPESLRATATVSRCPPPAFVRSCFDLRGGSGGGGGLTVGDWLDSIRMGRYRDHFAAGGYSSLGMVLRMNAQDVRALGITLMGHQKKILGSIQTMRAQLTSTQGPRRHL
Sequence of PDPK1 (human) (O15530 whole entry, looked up): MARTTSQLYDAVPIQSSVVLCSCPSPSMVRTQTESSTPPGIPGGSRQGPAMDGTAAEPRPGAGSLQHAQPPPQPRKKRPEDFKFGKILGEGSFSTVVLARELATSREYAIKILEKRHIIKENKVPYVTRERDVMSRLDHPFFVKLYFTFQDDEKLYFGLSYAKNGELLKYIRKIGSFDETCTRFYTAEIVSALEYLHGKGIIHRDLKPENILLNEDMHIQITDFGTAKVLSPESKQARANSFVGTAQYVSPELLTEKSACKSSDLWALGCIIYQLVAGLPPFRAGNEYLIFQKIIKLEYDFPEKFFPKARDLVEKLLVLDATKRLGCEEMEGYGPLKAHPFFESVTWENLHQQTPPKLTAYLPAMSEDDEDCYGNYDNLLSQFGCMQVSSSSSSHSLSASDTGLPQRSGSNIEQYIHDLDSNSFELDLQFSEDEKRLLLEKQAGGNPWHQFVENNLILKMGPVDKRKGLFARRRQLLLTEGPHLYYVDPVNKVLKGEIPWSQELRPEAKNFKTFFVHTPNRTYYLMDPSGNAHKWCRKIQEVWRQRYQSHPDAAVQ
Sequence of MYLK2 (human) (Q9H1R3 whole entry, looked up): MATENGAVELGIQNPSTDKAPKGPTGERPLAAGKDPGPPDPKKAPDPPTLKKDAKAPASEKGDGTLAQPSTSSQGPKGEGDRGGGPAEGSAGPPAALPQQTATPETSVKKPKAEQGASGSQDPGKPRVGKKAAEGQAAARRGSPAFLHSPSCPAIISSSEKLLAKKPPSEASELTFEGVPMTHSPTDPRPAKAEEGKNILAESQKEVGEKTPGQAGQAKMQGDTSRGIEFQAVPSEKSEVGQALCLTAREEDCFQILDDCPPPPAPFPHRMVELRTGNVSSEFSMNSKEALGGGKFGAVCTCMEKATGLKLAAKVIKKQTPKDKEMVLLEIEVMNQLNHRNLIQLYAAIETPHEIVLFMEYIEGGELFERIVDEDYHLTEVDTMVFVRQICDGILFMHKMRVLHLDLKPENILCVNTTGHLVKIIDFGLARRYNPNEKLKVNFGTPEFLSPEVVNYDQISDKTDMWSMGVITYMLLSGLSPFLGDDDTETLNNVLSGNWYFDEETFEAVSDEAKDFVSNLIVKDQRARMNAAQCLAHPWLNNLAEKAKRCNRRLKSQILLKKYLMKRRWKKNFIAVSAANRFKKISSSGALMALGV
Sequence of PLK3 (human) (Q9H4B4 whole entry, looked up): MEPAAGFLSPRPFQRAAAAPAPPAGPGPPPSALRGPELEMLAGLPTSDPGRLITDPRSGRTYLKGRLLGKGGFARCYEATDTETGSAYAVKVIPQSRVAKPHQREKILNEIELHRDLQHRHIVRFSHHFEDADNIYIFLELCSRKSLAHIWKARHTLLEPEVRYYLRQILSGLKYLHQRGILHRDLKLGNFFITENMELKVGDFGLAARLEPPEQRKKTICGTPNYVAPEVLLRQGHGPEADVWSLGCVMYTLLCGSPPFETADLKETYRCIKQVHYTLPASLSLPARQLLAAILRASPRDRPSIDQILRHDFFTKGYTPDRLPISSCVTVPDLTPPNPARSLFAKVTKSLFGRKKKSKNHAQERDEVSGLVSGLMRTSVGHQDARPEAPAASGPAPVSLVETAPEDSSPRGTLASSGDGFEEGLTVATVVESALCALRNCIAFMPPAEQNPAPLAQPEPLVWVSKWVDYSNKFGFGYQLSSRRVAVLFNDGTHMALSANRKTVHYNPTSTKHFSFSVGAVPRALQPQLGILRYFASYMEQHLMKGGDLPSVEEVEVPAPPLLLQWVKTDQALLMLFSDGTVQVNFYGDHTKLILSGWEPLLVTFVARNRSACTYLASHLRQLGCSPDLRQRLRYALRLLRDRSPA
Sequence of PRKG2 (human) (Q13237 whole entry, looked up): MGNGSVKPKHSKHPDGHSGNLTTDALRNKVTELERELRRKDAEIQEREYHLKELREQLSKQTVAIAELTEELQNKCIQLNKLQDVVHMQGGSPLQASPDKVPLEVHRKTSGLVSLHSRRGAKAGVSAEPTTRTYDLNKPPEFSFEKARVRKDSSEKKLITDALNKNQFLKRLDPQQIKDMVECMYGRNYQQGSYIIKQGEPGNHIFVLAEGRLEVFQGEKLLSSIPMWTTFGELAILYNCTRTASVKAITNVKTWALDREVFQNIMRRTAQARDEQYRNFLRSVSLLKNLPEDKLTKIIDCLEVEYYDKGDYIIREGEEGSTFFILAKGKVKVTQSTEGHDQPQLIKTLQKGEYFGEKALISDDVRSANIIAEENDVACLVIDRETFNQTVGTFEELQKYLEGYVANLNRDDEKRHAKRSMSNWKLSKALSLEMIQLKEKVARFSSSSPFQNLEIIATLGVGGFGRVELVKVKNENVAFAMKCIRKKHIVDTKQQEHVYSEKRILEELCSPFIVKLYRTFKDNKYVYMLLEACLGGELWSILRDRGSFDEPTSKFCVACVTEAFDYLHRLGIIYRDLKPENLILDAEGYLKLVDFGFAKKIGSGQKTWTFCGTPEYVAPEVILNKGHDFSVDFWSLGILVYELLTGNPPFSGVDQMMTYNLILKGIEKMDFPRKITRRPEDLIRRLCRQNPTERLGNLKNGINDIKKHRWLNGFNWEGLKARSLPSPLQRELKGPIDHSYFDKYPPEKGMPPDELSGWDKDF
Sequence of MAPK14 (human) (Q16539 whole entry, looked up): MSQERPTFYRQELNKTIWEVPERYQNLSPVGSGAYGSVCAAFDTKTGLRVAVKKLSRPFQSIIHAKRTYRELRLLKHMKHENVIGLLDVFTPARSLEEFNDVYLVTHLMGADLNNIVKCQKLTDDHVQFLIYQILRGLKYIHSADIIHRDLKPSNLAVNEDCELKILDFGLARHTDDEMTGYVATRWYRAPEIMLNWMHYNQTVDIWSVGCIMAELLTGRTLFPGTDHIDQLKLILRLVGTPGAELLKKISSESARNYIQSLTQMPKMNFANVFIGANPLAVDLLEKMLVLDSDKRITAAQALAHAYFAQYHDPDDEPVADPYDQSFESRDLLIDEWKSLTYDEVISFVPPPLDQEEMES
Sequence of BLK (human) (P51451 whole entry, looked up): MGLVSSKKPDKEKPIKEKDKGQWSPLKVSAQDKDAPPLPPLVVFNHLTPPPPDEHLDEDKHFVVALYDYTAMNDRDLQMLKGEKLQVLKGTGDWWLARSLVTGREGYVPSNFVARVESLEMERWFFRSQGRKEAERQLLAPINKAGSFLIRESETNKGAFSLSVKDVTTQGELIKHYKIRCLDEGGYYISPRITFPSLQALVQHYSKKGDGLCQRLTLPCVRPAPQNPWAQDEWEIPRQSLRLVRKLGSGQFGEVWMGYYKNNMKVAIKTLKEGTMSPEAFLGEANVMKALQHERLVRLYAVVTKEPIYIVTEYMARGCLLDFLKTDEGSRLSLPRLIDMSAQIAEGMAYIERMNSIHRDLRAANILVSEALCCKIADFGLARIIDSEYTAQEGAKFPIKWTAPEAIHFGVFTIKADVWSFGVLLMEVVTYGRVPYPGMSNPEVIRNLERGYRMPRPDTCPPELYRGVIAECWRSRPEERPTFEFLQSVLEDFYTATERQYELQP

COc1cc(N2CCN(C)CC2)ccc1Nc1ncc2c(n1)N(C)c1sccc1C(=O)N2C
kinase still bound, per cent of control (TESK1 (human)): 90% | kinase still bound, per cent of control (CHEK2 (human)): 77% | kinase still bound, per cent of control (BMPR2 (human)): 100% | kinase still bound, per cent of control (MYLK2 (human)): 90% | kinase still bound, per cent of control (STK32C (human)): 99% | kinase still bound, per cent of control (NTRK2 (human)): 83% | kinase still bound, per cent of control [1]: 82% | kinase still bound, per cent of control (PRKG2 (human)): 84% | kinase still bound, per cent of control (STK25 (human)): 80% | kinase still bound, per cent of control (FGR (human)): 98% | kinase still bound, per cent of control (PIK3CD (human)): 48% | kinase still bound, per cent of control (CDC2L2 (human)): 100% | kinase still bound, per cent of control (MAPK11 (human)): 85% | kinase still bound, per cent of control (INSRR (human)): 96% | kinase still bound, per cent of control (EPHB3 (human)): 93% | kinase still bound, per cent of control (MLTK (human)): 97% | kinase still bound, per cent of control (PDPK1 (human)): 93% | kinase still bound, per cent of control (PTK6 (human)): 56% | kinase still bound, per cent of control (DCLK1 (human)): 1.4% | kinase still bound, per cent of control (BLK (human)): 100% | kinase still bound, per cent of control (MST1R (human)): 76% | kinase still bound, per cent of control (MAP3K9 (human)): 100% | kinase still bound, per cent of control (FLT4 (human)): 96% | kinase still bound, per cent of control (PTK2 (human)): 13% | kinase still bound, per cent of control (PRKD2 (human)): 9.2% | kinase still bound, per cent of control (EPHA2 (human)): 100% | kinase still bound, per cent of control (STK35 (human)): 89% | kinase still bound, per cent of control (STK3 (human)): 69% | kinase still bound, per cent of control (ACVR1B (human)): 86% | kinase still bound, per cent of control [2]: 88% | kinase still bound, per cent of control (FYN (human)): 86% | kinase still bound, per cent of control (HCK (human)): 100% | kinase still bound, per cent of control (EPHA8 (human)): 89% | kinase still bound, per cent of control (AKT1 (human)): 100% | kinase still bound, per cent of control (PLK3 (human)): 22% | kinase still bound, per cent of control (BRSK1 (human)): 81% | kinase still bound, per cent of control (MAPK14 (human)): 82% | kinase still bound, per cent of control (RPS6KA4 KD1 (human)): 100% | kinase still bound, per cent of control (PAK6 (human)): 74% | kinase still bound, per cent of control (ROS1 (human)): 100% | kinase still bound, per cent of control (STK38L (human)): 88% | kinase still bound, per cent of control (IRAK3 (human)): 77% | kinase still bound, per cent of control (SRMS (human)): 76%
